Measured values taken from ChEMBL document CHEMBL6177953, “Discovery of a novel quinoxaline derivative modulator via a dual P53/TLR2 targeting strategy for the alleviation of radiation damage” (Eur J Med Chem, 2025).
The source made the active and inactive calls. The rule behind the calls is not given here.

Experiments:
AHH-1 [1] = experiment: Cytotoxicity against human AHH-1 cells incubated for 24 to 96 hrs by CCK-8 assay; assay type: functional, cell-based
[2] = Cytotoxicity against HUVEC incubated for 24 to 96 hrs by CCK-8 assay; assay type: toxicity, cell-based; details: human, HUVEC cells
Mus musculus [3] = experiment: Radioprotective activity in male C57BL/6J mouse assessed as increase in body weight at 250 mg/kg, ip pre-treated with compound for 24.25 hrs followed by irradiation at 8.5 Gy and measured on day 1 post irradiation; assay type: functional, organism-based; details: time 48.25 hrs
AHH-1 [4] = experiment: Antiradiation activity in human AHH-1 cells assessed as increase in cell viability at 2.5 to 10 micromol/L pre-treated with compound for 24 hrs followed by irradiation at 4 Gy measured after 24 hrs by CCK-8 assay; assay type: functional, cell-based; details: dose 2.5-10 µmol/L, time 48.0 hrs
Mus musculus [5] = experiment: Radioprotective activity in male C57BL/6J mouse assessed as increase in cell growth at 250 to 300 mg/kg, ip pre-treated with compound for 24.25 hrs followed by irradiation at 6.5 Gy and measured on 30 day post irradiation; assay type: functional, organism-based; details: dose 250-300 mg/kg, time 744.25 hrs
Mus musculus [6] = experiment: Radioprotective activity in male C57BL/6J mouse assessed as time required to increase in RBC count at 250 mg/kg, ip pre-treated with compound for 24.25 hrs followed by irradiation at 6.5 Gy and measured on 30 day post irradiation; assay type: functional; details: time 744.25 hrs
HUVEC [7] = experiment: Antiradiation activity in human HUVEC assessed as cell viability at 5 to 20 micromol/L pre-treated with compound for 24 hrs followed by irradiation at 6 Gy measured after 96 hrs by CCK-8 assay; assay type: functional, cell-based; details: dose 5-20 µmol/L, time 120.0 hrs
AHH-1 [8] = experiment: Induction of apoptosis in human AHH-1 cells assessed as viable cells pre-treated with compound for 24 hrs followed by irradiation at 6 Gy and measured after 24 hrs by Annexin V-FITC/PI staining based Flow cytometry analysis (reference value: 83.6%); assay type: functional; details: time 48 hrs
AHH-1 [9] = experiment: Induction of apoptosis in human AHH-1 cells assessed as late apoptotic cells pre-treated with compound for 24 hrs followed by irradiation at 6 Gy and measured after 24 hrs by Annexin V-FITC/PI staining based Flow cytometry analysis (reference value: 2.65%); assay type: functional; details: time 48 hrs
AHH-1 [10] = experiment: Induction of apoptosis in human AHH-1 cells assessed as early apoptotic cells pre-treated with compound for 24 hrs followed by irradiation at 6 Gy and measured after 24 hrs by Annexin V-FITC/PI staining based Flow cytometry analysis (reference value: 8.15%); assay type: functional; details: time 48 hrs
Mus musculus [11] = experiment: Radioprotective activity in male C57BL/6J mouse assessed as survival rate at 250 mg/kg, ip pre-treated with compound for 24.25 hrs followed by irradiation at 8.5 Gy and measured for 30 days post irradiation relative to control; assay type: functional; details: time 744.25 hrs
Mus musculus [12] = experiment: Radioprotective activity in male C57BL/6J mouse assessed as time required to increase in platelets at 250 mg/kg, ip pre-treated with compound for 24.25 hrs followed by irradiation at 6.5 Gy and measured on 30 day post irradiation; assay type: functional; details: time 744.25 hrs
AHH-1 [13] = experiment: Antiradiation activity in human AHH-1 cells assessed as increase in cell viability at 2.5 micromol/L pre-treated with compound for 24 hrs followed by irradiation at 8 Gy measured after 24 hrs by CCK-8 assay; assay type: functional, cell-based; details: dose 2.5 µmol/L, time 48.0 hrs
AHH-1 [14] = experiment: Antiradiation activity in human AHH-1 cells assessed as increase in cell viability at 2.5 to 10 micromol/L pre-treated with compound for 24 hrs followed by irradiation at 8 Gy measured after 24 hrs by CCK-8 assay; assay type: functional, cell-based; details: dose 2.5-10 µmol/L, time 48.0 hrs
AHH-1 [15] = experiment: Induction of apoptosis in human AHH-1 cells assessed as necrotic cells pre-treated with compound for 24 hrs followed by irradiation at 6 Gy and measured after 24 hrs by Annexin V-FITC/PI staining based Flow cytometry analysis (reference value: 5.37%); assay type: functional; details: time 48 hrs
Mus musculus [16] = experiment: Radioprotective activity in male C57BL/6J mouse assessed as time required to increase in WBC count at 250 mg/kg, ip pre-treated with compound for 24.25 hrs followed by irradiation at 6.5 Gy and measured on 30 day post irradiation; assay type: functional; details: time 744.25 hrs
AHH-1 [17] = experiment: Antiradiation activity in human AHH-1 cells assessed as increase in cell viability at 2.5 micromol/L pre-treated with compound for 24 hrs followed by irradiation at 4 Gy measured after 24 hrs by CCK-8 assay; assay type: functional, cell-based; details: dose 2.5 µmol/L, time 48.0 hrs
AHH-1 [18] = experiment: Antiradiation activity in human AHH-1 cells assessed as increase in cell viability at 2.5 to 10 micromol/L pre-treated with compound for 24 hrs followed by irradiation at 6 Gy measured after 24 hrs by CCK-8 assay; assay type: functional, cell-based; details: dose 2.5-10 µmol/L, time 48.0 hrs
AHH-1 [19] = experiment: Radioprotective activity against 6 Gy radiation-induced DNA damage in human AHH-1 cells assessed as attenuation of gamma-H2AX expression incubated for 0.5 to 2 hrs by immunohistochemical staining based confocal fluorescence microscopic analysis; assay type: functional, cell-based; details: time 0.5-2 hrs
Toll-like receptor 2 [20] = molecular target: T1, Toll-like receptor 2 (Homo sapiens, UniProt O60603); experiment: Binding affinity to TLR2 (unknown origin) assessed as dissociation constant by SPR analysis
T1 sequence (O60603 whole entry): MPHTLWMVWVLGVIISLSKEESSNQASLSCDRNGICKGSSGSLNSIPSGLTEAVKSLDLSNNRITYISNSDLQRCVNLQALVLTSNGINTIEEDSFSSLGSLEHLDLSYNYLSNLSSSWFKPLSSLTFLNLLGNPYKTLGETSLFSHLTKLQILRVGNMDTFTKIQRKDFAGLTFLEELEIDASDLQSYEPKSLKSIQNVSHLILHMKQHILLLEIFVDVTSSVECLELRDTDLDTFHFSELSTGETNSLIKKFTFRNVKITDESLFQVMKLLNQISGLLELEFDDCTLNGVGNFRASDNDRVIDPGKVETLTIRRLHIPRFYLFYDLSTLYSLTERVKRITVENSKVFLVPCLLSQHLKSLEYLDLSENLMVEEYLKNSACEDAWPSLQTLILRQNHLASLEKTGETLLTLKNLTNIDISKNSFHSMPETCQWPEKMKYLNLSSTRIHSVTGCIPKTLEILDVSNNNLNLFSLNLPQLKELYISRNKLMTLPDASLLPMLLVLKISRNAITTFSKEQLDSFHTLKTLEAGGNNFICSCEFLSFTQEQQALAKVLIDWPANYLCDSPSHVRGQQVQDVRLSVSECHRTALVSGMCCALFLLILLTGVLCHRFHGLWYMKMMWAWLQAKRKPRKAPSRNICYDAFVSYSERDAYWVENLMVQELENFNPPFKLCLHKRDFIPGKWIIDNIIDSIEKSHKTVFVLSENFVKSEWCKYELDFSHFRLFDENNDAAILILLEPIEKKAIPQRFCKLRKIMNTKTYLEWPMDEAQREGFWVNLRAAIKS

AHH-1 [21] = experiment: Induction of DNA damage repair activity in 6 Gy radiation-induced human AHH-1 cells assessed as downregulation of P53 level pre-treated with compound for 24 hrs followed by irradiation by Co-immunoprecipitation analysis; assay type: functional, cell-based
Toll-like receptor 2 [22] = molecular target: T1, Toll-like receptor 2; experiment: Binding affinity to TLR2 (unknown origin) by SPR analysis; details: filed as modulator, dose 312.5-10000 nM
AHH-1 [23] = experiment: Induction of DNA damage repair activity in 6 Gy radiation-induced human AHH-1 cells assessed as downregulation of Bax level pre-treated with compound for 24 hrs followed by irradiation by Co-immunoprecipitation analysis; assay type: functional, cell-based
Mus musculus [24] = experiment: Radioprotective activity in male C57BL/6J mouse assessed as time required to increase in neutrophil count at 250 mg/kg, ip pre-treated with compound for 24.25 hrs followed by irradiation at 6.5 Gy and measured on 30 day post irradiation; assay type: functional; details: time 744.25 hrs
Mus musculus [25] = experiment: Radioprotective activity in male C57BL/6J mouse assessed as increase in crypts villus length in mouse jejunum at 250 mg/kg, ip pre-treated with compound for 24.25 hrs followed by irradiation at 13 Gy and measured on 3.5 day post irradiation; assay type: functional, organism-based; details: time 108.25 hrs
HUVEC [26] = experiment: Upregulation of IL-6 secretion in HUVEC at 20 to 80 uM incubated for 24 hrs in presence of irradiation by ELISA; assay type: functional, cell-based; details: Homo sapiens, dose 20-80 µM
HUVEC [27] = experiment: Antiradiation activity in human HUVEC assessed as cell viability at 5 to 20 micromol/L pre-treated with compound for 24 hrs followed by irradiation at 8 Gy measured after 96 hrs by CCK-8 assay; assay type: functional, cell-based; details: dose 5-20 µmol/L, time 120.0 hrs
Mus musculus [28] = experiment: Radioprotective activity in male C57BL/6J mouse assessed as increase in body weight at 250 mg/kg, ip pre-treated with compound for 24.25 hrs followed by irradiation at 8.5 Gy and measured on day 18 post irradiation; assay type: functional, organism-based; details: time 456.25 hrs
Mus musculus [29] = experiment: Radioprotective activity in male C57BL/6J mouse assessed as attenuation of spleen atrophy at 250 mg/kg, ip pre-treated with compound for 24.25 hrs followed by irradiation at 13 Gy and measured on 3.5 day post irradiation; assay type: functional, organism-based; details: time 108.25 hrs
HUVEC [30] = experiment: Upregulation of P65 expression in HUVEC incubated for 24 hrs in presence of irradiation by Co-immunoprecipitation analysis; assay type: functional, cell-based; details: Homo sapiens
AHH-1 [31] = experiment: Antiradiation activity in human AHH-1 cells assessed as increase in cell viability at 2.5 micromol/L pre-treated with compound for 24 hrs followed by irradiation at 6 Gy measured after 24 hrs by CCK-8 assay; assay type: functional, cell-based; details: dose 2.5 µmol/L, time 48.0 hrs
HUVEC [32] = experiment: Upregulation of MyD88 expression in HUVEC incubated for 24 hrs in presence of irradiation by Co-immunoprecipitation analysis; assay type: functional, cell-based; details: Homo sapiens

## N#Cc1ccc(CS(=O)(=O)c2cnc3ccccc3n2)cc1
AHH-1 [1]
  IC50: > 60 µM
[2]
  IC50: > 60 µM
Mus musculus [3]
  Activity: inactive
AHH-1 [4]
  Activity: Active
Mus musculus [5]
  Activity: Active
Mus musculus [6]
  Time: 14 days
HUVEC [7]
  Activity: Active
AHH-1 [8]
  Activity: 72%
AHH-1 [9]
  Activity: 6.07%
AHH-1 [10]
  Activity: 13.1%
Mus musculus [11]
  Activity: 100%
Mus musculus [12]
  Time: 14 days
AHH-1 [13]
  Activity: Active
AHH-1 [14]
  Activity: Active
AHH-1 [15]
  Activity: 8.81%
Mus musculus [16]
  Time: 10 days
AHH-1 [17]
  Activity: Active
AHH-1 [18]
  Activity: Active
AHH-1 [19]
  Activity: Active
Toll-like receptor 2 [20]
  Kd: 3.93 µM
AHH-1 [21]
  Activity: Active
Toll-like receptor 2 [22]
  Activity: Dose-dependent-effect
AHH-1 [23]
  Activity: Active
Mus musculus [24]
  Time: 14 days
Mus musculus [25]
  Activity: Active
HUVEC [26]
  Activity: Active
HUVEC [27]
  Activity: Active
Mus musculus [28]
  Activity: Active; Compound Showed Significant Regaining Effect
Mus musculus [29]
  Activity: Active
HUVEC [30]
  Activity: Active
AHH-1 [31]
  Activity: Active
HUVEC [32]
  Activity: Active
